Our source for the IC50 values is patent US20220235064A1 (WELLMARKER BIO CO., LTD., priority 2019, published 2022).

This assay addresses T1, RON tyrosine kinase (Homo sapiens, UniProt Q04912).
T1 construct: purchased Carna Bioscience
Description: Enzyme inhibitory activity against RON tyrosine kinase (TR-FRET). It counts as biochemical. To be noted: RON (Carna Bioscience). As to the method: Experimental Example 1: Measurement of Enzyme Inhibitory Activity Against RON Tyrosine Kinase
To measure enzyme inhibitory activity of the example compounds against RON, IC50 values of the compounds were measured using fluorescence resonance energy transfer (FRET).
Specifically, first, RON (Carna Bioscience) was diluted in a kinase assay buffer (50 mM HEPES pH 7.5, 1 mM EGTA, 10 mM MgCl2, 2 mM DTT, and 0.01% Tween-20) to be at a concentration (0.4 nM) that is twice the final reaction concentration. The dilute was added to a 384-well-plate at 5 μl per well. Each of the example compounds was prepared at a concentration of 1 mM in 100% DMSO and diluted 8 times in a stepwise manner through 10-fold dilution. Each compound was diluted in a kinase assay buffer to be at a concentration that is 4 times the final reaction concentration. The dilute was added to a 384-well-plate at 2.5 μl per well, and incubation was performed at room temperature for 15 minutes.
Thereafter, an ATP solution (Sigma Aldrich) prepared at a concentration of 0.25 M was diluted in a kinase assay buffer to be at a concentration (60 μM) that is 4 times the final reaction concentration. Dilution of a tyrosine peptide substrate (Perkin-Elmer) was performed therein to be at a concentration (400 nM) that is 4 times the final reaction concentration. The dilute was added to a 384-well-plate at 2.5 µl per well. Reaction was allowed to proceed for 60 minutes by incubating the 384-well-plate at room temperature. Thereafter, EDTA (Sigma Aldrich) was diluted in a TR-FRET detection buffer (Perkin-Elmer) to be at a concentration (20 mM) that is twice the final reaction concentration. Dilution of a Europium-containing phosphotyrosine antibody (Perkin-Elmer) was performed in the diluted EDTA solution to be at a concentration (4 nM) that is twice the final reaction concentration, so that a stop solution for RON reaction was prepared.
The stop solution was added to the 384-well-plate at 10 μl per well to quench the reaction, and incubation was performed at room temperature for 60 minutes. Then, the 384-well-plate was read on a Victor X5 (Perkin-Elmer) plate reader. Here, the excitation wavelength was 340 nm, and the emission wavelengths were 620 nm and 665 nm. An IC50 value of the compound was derived using GraphPad Prism 5 program, in which the IC50 was derived by expressing emission energy at the wavelength of 665 nm as a function of the compound concentration.
In general terms: Time-resolved FRET reads energy transfer from a long-lived donor to a nearby acceptor.

Each structure is given as a SMILES string.

T1 sequence (Q04912 25-1400): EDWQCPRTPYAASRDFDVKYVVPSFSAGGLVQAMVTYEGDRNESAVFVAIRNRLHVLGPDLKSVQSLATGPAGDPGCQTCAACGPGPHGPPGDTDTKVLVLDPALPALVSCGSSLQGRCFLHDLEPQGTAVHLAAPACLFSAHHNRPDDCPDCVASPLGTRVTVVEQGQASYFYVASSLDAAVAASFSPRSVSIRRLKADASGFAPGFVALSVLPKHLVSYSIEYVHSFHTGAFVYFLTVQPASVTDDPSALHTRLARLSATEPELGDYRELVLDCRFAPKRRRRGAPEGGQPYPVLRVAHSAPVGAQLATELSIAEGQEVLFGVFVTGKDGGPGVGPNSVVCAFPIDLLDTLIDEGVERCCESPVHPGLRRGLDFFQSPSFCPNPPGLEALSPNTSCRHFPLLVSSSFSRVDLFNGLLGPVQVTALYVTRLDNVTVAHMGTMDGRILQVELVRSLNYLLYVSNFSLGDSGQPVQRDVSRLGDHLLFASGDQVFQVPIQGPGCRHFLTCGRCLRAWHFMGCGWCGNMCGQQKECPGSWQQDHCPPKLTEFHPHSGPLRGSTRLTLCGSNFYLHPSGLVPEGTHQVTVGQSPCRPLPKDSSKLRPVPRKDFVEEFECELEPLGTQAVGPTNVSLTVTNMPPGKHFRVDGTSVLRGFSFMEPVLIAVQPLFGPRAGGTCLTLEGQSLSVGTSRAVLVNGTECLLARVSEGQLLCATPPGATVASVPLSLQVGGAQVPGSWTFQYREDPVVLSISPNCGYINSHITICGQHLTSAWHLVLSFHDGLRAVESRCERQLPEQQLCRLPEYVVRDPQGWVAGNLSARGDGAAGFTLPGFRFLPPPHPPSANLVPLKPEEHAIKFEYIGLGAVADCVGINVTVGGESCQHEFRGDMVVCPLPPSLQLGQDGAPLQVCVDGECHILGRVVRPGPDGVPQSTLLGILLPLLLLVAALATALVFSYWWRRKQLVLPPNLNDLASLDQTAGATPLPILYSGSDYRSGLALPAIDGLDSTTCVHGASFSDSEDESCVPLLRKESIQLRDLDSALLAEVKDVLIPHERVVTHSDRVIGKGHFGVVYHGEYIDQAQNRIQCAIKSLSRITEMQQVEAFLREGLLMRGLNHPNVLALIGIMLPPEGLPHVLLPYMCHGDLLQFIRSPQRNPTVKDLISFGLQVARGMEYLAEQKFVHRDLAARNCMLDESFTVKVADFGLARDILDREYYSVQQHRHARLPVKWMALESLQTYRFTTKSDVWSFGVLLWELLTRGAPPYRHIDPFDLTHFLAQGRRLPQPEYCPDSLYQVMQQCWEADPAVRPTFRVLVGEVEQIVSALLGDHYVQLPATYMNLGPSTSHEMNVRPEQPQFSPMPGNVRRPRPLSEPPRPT

For the compound `O=C(Nc1ccc(Oc2ncnc3[nH]cnc23)c(F)c1)c1c2c(cn(-c3ccc(F)cc3)c1=O)CCO2` [Example 72, N-(4-((9H-purin-6-yl)oxy)-3-fluorophenyl)-5-(4-fluorophenyl)-6-oxo-2,3,5,6-tetrahydrofuro[3,2-c]pyridine-7-carboxamide], the concentration for half-maximal inhibition (IC50) (usually the midpoint of a concentration-inhibition curve) was determined as 46.2 nM.
In turn, `Cc1nc2c(Oc3ccc(NC(=O)c4c5c(cn(-c6ccc(F)cc6)c4=O)CCO5)cc3F)ccnc2[nH]1` [Example 67, N-(3-Fluoro-4-((2-methyl-3H-imidazo[4,5-b]pyridin-7-yl)oxy)phenyl)-5-(4-fluorophenyl)-6-oxo-2,3,5,6-tetrahydrofuro[3,2-c]pyridine-7-carboxamide] returned an IC50 of 15 nM.
With `Nc1cc(Oc2ccc(NC(=O)c3c4c(cn(-c5ccc(F)cc5)c3=O)CCO4)cc2F)ncn1` [Example 58, N-(4-((6-Aminopyrimidin-4-yl)oxy)-3-fluorophenyl)-5-(4-fluorophenyl)-6-oxo-2,3,5,6-tetrahydrofuro[3,2-c]pyridine-7-carboxamide] the figure was 25 nM.
With `Nc1nccc(Oc2ccc(NC(=O)c3c4c(cn(-c5ccc(F)cc5)c3=O)CCO4)cc2F)n1` [Example 57, N-(4-((2-Aminopyrimidin-4-yl)oxy)-3-fluorophenyl)-5-(4-fluorophenyl)-6-oxo-2,3,5,6-tetrahydrofuro[3,2-c]pyridine-7-carboxamide] the figure was 18.2 nM.
In turn, `O=C(Nc1ccc(Oc2ccnc3[nH]cnc23)c(F)c1)c1c2c(cn(-c3ccc(F)cc3)c1=O)CCO2` [Example 66, N-(4-((3H-imidazo[4,5-b]pyridin-7-yl)oxy)-3-fluorophenyl)-5-(4-fluorophenyl)-6-oxo-2,3,5,6-tetrahydrofuro[3,2-c]pyridine-7-carboxamide] gave a concentration for half-maximal inhibition (IC50) of 8.63 nM.
The compound `O=C(Nc1ccc(Oc2ccnc3cc(-c4ccc(CN5CCOCC5)cn4)sc23)c(F)c1)c1c2c(cn(-c3ccc(F)cc3)c1=O)CCC2` [Example 7] registered an IC50 of 34.9 nM.
As for `CN1CCC(Nc2cc(Oc3ccc(NC(=O)c4c5c(cn(-c6ccc(F)cc6)c4=O)CCO5)cc3F)ncn2)CC1` [Example 61, N-(3-Fluoro-4-((6-((1-methylpiperidin-4-yl)amino)pyrimidin-4-yl)oxy)phenyl)-5-(4-fluorophenyl)-6-oxo-2,3,5,6-tetrahydrofuro[3,2-c]pyridine-7-carboxamide], half-maximal inhibition (IC50) was put at 156 nM.
In the case of `O=C(Nc1ccc(Oc2ccnc3[nH]ccc23)c(F)c1)c1c2c(cn(-c3ccc(F)cc3)c1=O)CCO2` [Example 65, N-(4-((1H-pyrrolo[2,3-b]pyridin-4-yl)oxy)-3-fluorophenyl)-5-(4-fluorophenyl)-6-oxo-2,3,5,6-tetrahydrofuro[3,2-c]pyridine-7-carboxamide], the 50% inhibitory concentration (IC50) is 1.72 nM.
The compound `NC(=O)c1nccc(Oc2ccc(NC(=O)c3c4c(cn(-c5ccc(F)cc5)c3=O)CCO4)cc2F)c1Cl` [Example 54, N-(4-((2-Carbamoyl-3-chloropyridin-4-yl)oxy)-3-fluorophenyl)-5-(4-fluorophenyl)-6-oxo-2,3,5,6-tetrahydrofuro[3,2-c]pyridine-7-carboxamide] came in with a 50% inhibitory concentration (IC50) above 1000 nM.
As for `O=C(Nc1ccc(Oc2ccnc3cc(OCCCN4CCOCC4)c(C(F)(F)F)cc23)c(F)c1)c1c2c(cn(-c3ccc(F)cc3)c1=O)CCO2` [Example 170, N-(3-Fluoro-4-((7-(3-morpholinopropoxy)-6-(trifluoromethyl)quinolin-4-yl)oxy)phenyl)-5-(4-fluorophenyl)-6-oxo-2,3,5,6-tetrahydrofuro[3,2-c]pyridine-7-carboxamide], the 50% inhibitory concentration (IC50) was above 100 nM.
With `Nc1cc(Oc2ccc(NC(=O)c3c4c(cn(-c5ccc(F)cc5)c3=O)CCO4)cc2F)ccn1` [Example 56, N-(4-((2-Aminopyridin-4-yl)oxy)-3-fluorophenyl)-5-(4-fluorophenyl)-6-oxo-2,3,5,6-tetrahydrofuro[3,2-c]pyridine-7-carboxamide] the figure was 11.9 nM; with `COc1cc2nccc(Oc3ccc(NC(=O)c4c5c(cn(-c6cccc(F)c6)c4=O)CCO5)cc3F)c2cc1OC` [Example 43, N-(4-((6,7-Dimethoxyquinolin-4-yl)oxy)-3-fluorophenyl)-6-oxo-5-(3-fluorophenyl)-2,3,5,6-tetrahydrofuro[3,2-c]pyridine-7-carboxamide], 5.13 nM.
As to `O=C(Nc1ccc(Oc2ccnc3ccoc23)c(F)c1)c1c2c(cn(-c3ccc(F)cc3)c1=O)CCO2` [Example 69, N-(3-Fluoro-4-((furo[3,2-b]pyridin-7-yl)oxy)phenyl)-5-(4-fluorophenyl)-6-oxo-2,3,5,6-tetrahydrofuro[3,2-c]pyridine-7-carboxamide], the IC50 came to 3.29 nM.
`O=C(Nc1ccc(Oc2ccnc3[nH]ncc23)c(F)c1)c1c2c(cn(-c3ccc(F)cc3)c1=O)CCO2` [Example 68, N-(4-((1H-pyrazolo[3,4-b]pyridin-4-yl)oxy)-3-fluorophenyl)-5-(4-fluorophenyl)-6-oxo-2,3,5,6-tetrahydrofuro[3,2-c]pyridine-7-carboxamide]: 1.57 nM corresponded to half-maximal inhibition (IC50).
Compound `O=C(Nc1ccc(Oc2cc(NC3CCOCC3)ncn2)c(F)c1)c1c2c(cn(-c3ccc(F)cc3)c1=O)CCO2` [Example 59] yielded an IC50 of 2.24 nM.
With `O=C(Nc1ccc(Oc2ncnc3c2CCN3)c(F)c1)c1c2c(cn(-c3ccc(F)cc3)c1=O)CCO2` [Example 74, N-(4-((6,7-Dihydro-5H-pyrrolo[2,3-d]pyrimidin-4-yl)oxy)-3-fluorophenyl)-5-(4-fluorophenyl)-6-oxo-2,3,5,6-tetrahydrofuro[3,2-c]pyridine-7-carboxamide] the figure was 9.75 nM.
In turn, `O=C(Nc1ccc(Oc2ccnc3cc(OCCCN4CCOCC4)ccc23)c(F)c1)c1c2c(cn(-c3ccc(F)cc3)c1=O)CCC2` [Example 159, N-(3-Fluoro-4-((7-(3-morpholinopropoxy)quinolin-4-yl)oxy)phenyl)-2-(4-fluorophenyl)-3-oxo-3,5,6,7-tetrahydro-2H-cyclopenta[c]pyridine-4-carboxamide] showed an IC50 of 11.9 nM.
`Nc1nccc(Oc2ccc(NC(=O)c3c4c(cn(-c5ccc(F)cc5)c3=O)CCO4)cc2F)c1Cl` [Example 55, N-(4-((2-Amino-3-chloropyridin-4-yl)oxy)-3-fluorophenyl)-5-(4-fluorophenyl)-6-oxo-2,3,5,6-tetrahydrofuro[3,2-c]pyridine-7-carboxamide] registered an IC50 of 2.24 nM.
In the case of `O=C(Nc1ccc(Oc2ccnc3cc(OCCN4CCOCC4)ccc23)c(F)c1)c1c2c(cn(-c3ccc(F)cc3)c1=O)CCO2` [Example 157, N-(3-Fluoro-4-((7-(2-morpholinylethoxy)quinolin-4-yl)oxy)phenyl)-5-(4-fluorophenyl)-6-oxo-2,3,5,6-tetrahydrofuro[3,2-c]pyridine-7-carboxamide], inhibition was half-maximal at 1.32 nM (IC50).
`O=C(Nc1ccc(Oc2ccnc3ccnn23)c(F)c1)c1c2c(cn(-c3ccc(F)cc3)c1=O)CCO2` [Example 75, N-(3-Fluoro-4-(pyrazolo[1,5-a]pyrimidin-7-yloxy)phenyl)-5-(4-fluorophenyl)-6-oxo-2,3,5,6-tetrahydro[3,2-c]pyridine-7-carboxamide] returned a half-maximal inhibitory concentration (IC50) of 2800 nM.
With `O=C(Nc1ccc(Oc2ccnc(NC3CCOCC3)c2)c(F)c1)c1c2c(cn(-c3ccc(F)cc3)c1=O)CCO2` [Example 60, N-(3-Fluoro-4-((2-((tetrahydro-2H-pyran-4-yl)amino)pyridin-4-yl)oxy)phenyl)-5-(4-fluorophenyl)-6-oxo-2,3,5,6-tetrahydrofuro[3,2-c]pyridine-7-carboxamide] the figure was 13.1 nM.
